Where two headings read alike, the source gives them in different places.
Assays:
HMVECLs = experiment: IL-8-directed neutrophil transendothelial migration (TEM) assay; format: cell-based, human
Experimental: Neutrophil transendothelial migration (TEM) assay: Neutrophils were isolated from heparinized venous blood that was collected from healthy volunteers using a protocol approved by the University of Maryland Institutional Review Board and TEM of calcein-labeled neutrophils through HMVECLs was measured.

p38α = p38α (Homo sapiens, UniProt Q16539); experiment: STD-NMR with p38α; format: binding; parameters: made in house; host or cells: E. coli BL21; conditions: 200 μM UM101, 5 μM protein
Experimental: Saturation Transfer Difference Nuclear Magnetic Resonance (STD-NMR): A 40 mM stock solution of UM101 was made in d6-DMSO. STD-NMR samples contained 150 mM NaCl, 50 mM phosphate, pH 7,200 μM UM101, and 5 μM p38 protein in D20. Spectra were recorded on an Agilent DD2 500-MHz spectrometer equipped with a 5-mm inverse HFCN probe head at 300 K. During each transient, the protein was saturated with a series of 58 […]-shaped pulses (50 ms, 1 ms delay between pulses) using the vendor-supplied STD-ES pulse sequence, for a total saturation time of 3 seconds. The on-resonance irradiation of protein was done at 0.5 ppm and off-resonance irradiation at 30 ppm. The vendor-supplied WATERGATE pulse sequence was used to suppress the water signal in the STD spectrum. The on-resonance and off-resonance pulse sequences were subtracted internally. A total of 16,384 transients were collected for each STD experiment with a 1 second delay between acquisitions, 6000 Hz spectral width, and 1.3 second acquisition time.
Selective binding of UM101 to the CADD-targeted pocket in p38α was confirmed using Saturation Transfer Difference (STD)-NMR. The peaks in the 1D spectrum are labeled according to tentative peak assignments of UM101 in aqueous form, based on assignments of UM101 in 2 mM d6-DMSO, which were obtained from the use of 1D proton and C13 and 2D-HMBC experiments. […]

[1] = target: T1, p38α mutant (R49K/HL107-8TF/K165R) (Homo sapiens, UniProt Q16539, H107T/K165R/L108F/R49K); experiment: DSF, binding to p38α mutant with 4 mutations in CADD-targeted pocket; conditions: four of ten target pocket amino acids substituted
T1 construct: made in house; host or cells: E. coli BL21

[2] = system: Stat-1 phosphorylation in anisomycin-stimulated HeLa cells; experiment: Inhibition of substrate phosphorylation, phospho-Stat-1 immunoblot; format: cell-based, human; conditions: 50 μM, 30 min pretreatment
Experimental: Inhibition of substrate phosphorylation: A functional analysis of UM101 to block p38-dependent phosphorylation of MK2 and Stat-1 was performed in HeLa cells. […] Cell extracts prepared in RIPA buffer containing protease and phosphatase inhibitors were resolved by SDS-PAGE, transferred to PVDF membrane, blocked with 5% nonfat dry milk, probed with primary antibodies against phosphorylated MK2 and Stat-1, and total p38α as a loading control. Bands were detected using secondary antibodies conjugated to infrared fluorophores and infrared fluorescence imaging (Odyssey; LICOR).

[3] = system: LPS/hyperthermia-induced ALI in mice
p38β = target: T2, p38β (Homo sapiens, UniProt Q15759); experiment: DSF, binding to p38β
T2 construct: HA (N); made in house; host or cells: E. coli BL21

[4] = system: LPS-induced acute lung injury in mice; experiment: Mouse LPS acute lung injury model with UM101 analogues, total protein in lung lavage fluid (FIG. 9, FIG. 10); format: in vivo; conditions: FIG. 9: pretreated i.p. with 1 mg, then 100 mg LPS i.t. at 39° C.
Experimental: FIG. 9 illustrates that UM101 and analogues inhibit acute lung injury in a mouse model. Mice were pretreated i.p. with 1 mg of test compounds and then treated with […] LPS i.t. at 39° C. to induce inflammation. Lung injury was assessed by measuring total protein in the lung lavage fluid.
FIG. 10 illustrates that UM101 and analogues inhibit acute lung injury in a mouse model. All mice received 50 μg LPS i.t. and were kept 24 h at 39° C.; all treatments 1 mg in 0.5 ml DMSO given 6 h post-LPS; mean SM, n=5, *p=0.03 vs DMSO #1; †p=0.16 vs DMSO #2. Lung injury was assessed by measuring total protein in the lung lavage fluid.
First, the compounds can block thrombin-induced cell permeability in human vascular endothelial cells (FIG. 8). […] Mice were pretreated i.p. with 1 mg of test compounds and then treated with […] LPS i.t. at 39° C. to induce inflammation. Lung injury was assessed by measuring total protein in the lung lavage fluid. […] All mice received 50 μg LPS i.t. and were kept 24 h at 39° C.; all treatments 1 mg in 0.5 ml DMSO given 6 h post-LPS; mean±SM, n=5, *p=0.03 vs DMSO #1; †p=0.16 vs DMSO #2. Lung injury was assessed by measuring total protein in the lung lavage fluid.

T1 sequence (Q16539 whole entry R49K/H107T/L108F/K165R): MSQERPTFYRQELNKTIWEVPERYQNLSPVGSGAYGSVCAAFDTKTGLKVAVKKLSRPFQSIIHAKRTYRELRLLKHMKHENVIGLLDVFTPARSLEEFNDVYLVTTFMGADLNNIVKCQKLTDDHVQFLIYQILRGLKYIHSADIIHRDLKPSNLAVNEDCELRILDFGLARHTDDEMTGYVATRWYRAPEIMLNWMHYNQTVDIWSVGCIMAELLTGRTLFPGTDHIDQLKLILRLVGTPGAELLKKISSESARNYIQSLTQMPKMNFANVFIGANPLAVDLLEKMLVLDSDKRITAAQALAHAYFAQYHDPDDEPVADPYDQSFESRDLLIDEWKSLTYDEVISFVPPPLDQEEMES
Chain of p38α (Q16539 whole entry): as the sequence (Q16539 whole entry R49K/H107T/L108F/K165R) above, with K49R, T107H, F108L, R165K counted along it
T2 sequence (Q15759 whole entry): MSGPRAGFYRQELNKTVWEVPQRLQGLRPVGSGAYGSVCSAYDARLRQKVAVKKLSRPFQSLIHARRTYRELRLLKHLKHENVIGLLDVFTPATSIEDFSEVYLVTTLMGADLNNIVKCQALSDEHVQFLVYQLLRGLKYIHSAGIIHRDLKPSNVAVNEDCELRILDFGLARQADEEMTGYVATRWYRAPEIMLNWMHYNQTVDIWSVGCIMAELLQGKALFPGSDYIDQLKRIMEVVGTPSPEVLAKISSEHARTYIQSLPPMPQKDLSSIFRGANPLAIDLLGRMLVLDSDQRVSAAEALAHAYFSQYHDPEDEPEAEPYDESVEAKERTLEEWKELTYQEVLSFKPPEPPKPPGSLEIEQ

O=C(Nc1ccc(CN2CCS(=O)(=O)CC2)cc1)c1ccc(Cl)cc1 [UM101, 4-chloro-N-{4-[(1,1-dioxo-1lambda˜6˜,4-thiazinan-4-yl)methyl]phenyl}benzamide]
reduction of hyperthermia-augmented neutrophil TEM (HMVECLs; 10 μM): 95% | reduction of hyperthermia-augmented neutrophil TEM (HMVECLs; 25 μM): less than baseline levels | reduction of hyperthermia-augmented neutrophil TEM (HMVECLs; 50 μM): less than baseline levels | interaction with p38α (STD-NMR) (p38α): protons in both aromatic rings of UM101 interact with p38α | binding to p38α mutant (DSF) [1]: no UM101-binding | anisomycin-stimulated phosphorylation of Stat-1 [2]: reduced | reduction of lavage neutrophil content vs. DMSO-treated controls ([3]; 100 μg i.p.): 44.4% | reduction of lavage neutrophil content vs. DMSO-treated controls ([3]; 300 μg i.p.): 49.5% | reduction of lavage neutrophil content vs. DMSO-treated controls ([3]; 500 μg i.p.): 55.3% | reduction of lavage neutrophil content vs. DMSO-treated controls ([3]; 1000 μg i.p.): 54% | survival of pretreated mice ([3]; 100, 300, 500 or 1000 μg i.p., 24 h): All sixteen UM101-pretreated mice survived | stabilization of p38β (DSF) (p38β): only stabilized p38α | protein leak into bronchoalveolar lavage fluid (total protein) [4]: reduced protein leak

— US11078171B2, “Non-ATP/catalytic site p38 mitogen activated protein kinase inhibitors” (University of Maryland, Baltimore, priority 2018, dated 2021)
